Three compounds from patent US8871443B2, “Schizophrenia-related isoform of KCNH2 and development of antipsychotic drugs” (The United States of America, as represented by the …, priority 2007, dated 2014) can be followed below.

Series [1] concerns patients with schizophrenia. The series can be described thus: CATIE trial, time to discontinuation of olanzapine (Cox proportional hazard model). In kind it is in vivo, human. The settings on record: for hazard ratio (HR) of discontinuation of medication: n=89; for Time to discontinuation, Est (COX proportional hazard model) / Time to discontinuation, HR (hazard ratio): n = 89, event = 46. The source says: The second cohort consisted of patients randomly assigned to five medications during the Phase 1/1A (first drug assigned) of the Clinical Antipsychotic Trials of Intervention Effectiveness (CATIE), (Stroup T S, McEvoy J P, Swartz M S, et al. The National Institute of Mental Health Clinical Antipsychotic Trials of Intervention Effectiveness (CATIE) project: Schizophrenia trial design and protocol development. Schizophr. Bull. 2003; 29(1):15-31) a clinical trial to compare the effectiveness of antipsychotic drugs. Patients were initially randomly assigned to receive olanzapine, perphenazine, quetiapine, risperidone or ziprasidone under double-blind conditions and followed up for 18 months or until treatment was discontinued or switched to another antipsychotic (i.e. Phase 2). Eligible patients were 18 to 65 years of age, had received a diagnosis of schizophrenia based on DSM-IV criteria 26 and were able to take oral antipsychotic medication. The primary outcome measure in the CATIE sample was time to medication discontinuation, most often due to lack of efficacy or side-effects. PANSS ratings were included as a secondary efficacy outcome. Details on the CATIE trial methods have been previously published. (Stroup T S, McEvoy J P, Swartz M S, et al. The National Institute of Mental Health Clinical Antipsychotic Trials of Intervention Effectiveness (CATIE) project: Schizophrenia trial design and protocol development. Schizophr. Bull. 2003; 29(1):15-31.) For consistency with the NIMH inpatient study and to reduce effects of genetic heterogeneity, only Caucasian subjects were included for analysis. Because of the outpatient and parallel design of this study, information about compliance based on drug clearance is an important factor determining symptom change during the CATIE trial. (Bigos K L, Pollock B G, Coley K C, et al. Sex, race, and smoking impact olanzapine exposure. Journal of Clinical Pharmacology. 2008; 48(2):157-165; Bigos K L, Bies R R, Pollock B G, Lowy J J, Zhang F, Weinberger D R. Genetic Variation in CYP3A43 Explains Racial Difference in Olanzapine Clearance. Molecular Psychiatry. In Press.) Thus, we only analyzed treatment response from subjects on whom we had drug clearance data (N=364) (Bigos K L, Pollock B G, Coley K C, et al. Sex, race, and smoking impact olanzapine exposure. Journal of Clinical Pharmacology. 2008; 48(2):157-165). Drug clearance was estimated using population pharmacokinetic modeling of drug concentrations and used in the statistical analysis of treatment response as previously described. (Bigos K L, Pollock B G, Coley K C, et al. Sex, race, and smoking impact olanzapine exposure. Journal of Clinical Pharmacology. 2008; 48(2):157-165. Bigos K L, Bies R R, Pollock B G, Lowy J J, Zhang F, Weinberger D R. Genetic Variation in CYP3A43 Explains Racial Difference in Olanzapine Clearance. Molecular Psychiatry. In Press.)
We genotyped three SNPs rs3900779, rs748693 and rs1036145 in KCNH2 which have been associated with schizophrenia and with expression of the novel KCNH2 3.1 isoform in human post-mortem brain. (Huffaker S J, Chen J S, Nicodemus K K, et al. A primate-specific, brain isoform of KCNH2 affects cortical physiology, cognition, neuronal repolarization and risk of schizophrenia. Nat. Med. May 2009; 15(5):509-518.) Genotypes were determined using the 5′-exonuclease fluorescent Taqman assay (assay by design or assay on demand) and the allelic discrimination was read on an ABI 7900 SDS system (Applied Biosystems, Foster City, Calif.). (Livak K J. Allelic discrimination using fluorogenic probes and the 5′ nuclease assay. Genet. Anal.-Biomol. Eng. February 1999; 14(5-6):143-149.)
We also attempted to examine time to discontinuation of medication, which was a primary outcome measure of the CATIE trial. […]

Another series deals with KCNH2-1A mRNA expression. Briefly: KCNH2-1A expression in frontal cortex of neuroleptic treated rats. The following applies: for effect on KCNH2-1A expression within the frontal cortex: one of three doses for 28 days, vs vehicle; for change in KCNH2-1A expression, frontal cortex: 28 days. As for the experimental part: (§1) Referring to FIG. 19, 8-10 rats per treatment group were treated with one of three doses of either Haloperidol (0.08, 0.6, and 1 mg/kg) or Clozapine (0.5, 5, 10 mg/kg) for 28 days (as compared to rats treated with vehicle alone). Frontal cortex expression levels of NOS3 (ABI assay Rn02132634_sl) and KCNH2-1A (ABI assay Rn01442523_ml) were normalized to the geometric mean of two housekeeping genes (GAPDH, B2M). Effects of antipsychotic treatment on gene expression were tested by linear regression with gene expression as the dependent variable. Differences between vehicle alone and the two therapeutic range equivalent dosages (0.08 and 0.6 mg/kg/day of Haloperidol; 0.5 and 5 mg/kg/day of Clozapine) were tested using post-hoc LSD.

For a further series, the system named is NOS3 mRNA expression. Briefly: NOS3 expression in frontal cortex of neuroleptic treated rats. The settings on record: one of three doses for 28 days, vs vehicle. In kind it is in vivo, rat. As for the experimental part:
as §1

The mark [2] stands for this setting: rs748693, second genotype line (genotype not given) vs non-risk allele homozygote.
Where [3] appears, read: rs748693 GG genotype vs non-risk allele homozygote.
[4] abbreviates: rs1036145, second genotype line (genotype not given) vs non-risk allele homozygote.
[5] abbreviates: rs1036145 TT genotype vs non-risk allele homozygote.
The mark [6] stands for this setting: rs3900779, second genotype line (genotype not given) vs reference.
[7] abbreviates: rs3900779, third genotype line (genotype not given) vs reference.

As to `Cc1cc2c(s1)Nc1ccccc1N=C2N1CCN(C)CC1` [olanzapine], the “times less likely to have discontinued medication” value in series [1] (GG genotype at rs748693 vs non-risk allele homozygote) was approximately 4 times; in series [1] (TT genotype at rs1036145 vs non-risk allele homozygote), approximately 5 times. Further, the “hazard ratio (HR) of discontinuation of medication” value is reported as 0.254 in series [1] (GG genotype at rs748693 vs non-risk allele homozygote, p=0.031) and 0.208 in series [1] (TT genotype at rs1036145 vs non-risk allele homozygote, p=0.033). For the same compound, the “Time to discontinuation, Est (COX proportional hazard model)” value in series [1] (setting [2]) is on record as −0.119; in series [1] (setting [3]), −1.371; in series [1] (setting [4]) it was −0.06; in series [1] (setting [5]), −1.569; in series [1] (setting [6]), −0.431; in series [1] (setting [7]) it was −0.688. The “Time to discontinuation, HR (hazard ratio)” value in series [1] (setting [2]) stood at 0.888; in series [1] (setting [3]) it was 0.254; in series [1] (setting [4]), 0.942; in series [1] (setting [5]), 0.208; in series [1] (setting [6]), 0.65; in series [1] (setting [7]), 0.503.
With `CN1CCN(C2=Nc3cc(Cl)ccc3Nc3ccccc32)CC1` [clozapine], in the series with KCNH2-1A mRNA expression, the “effect on KCNH2-1A expression within the frontal cortex” value was “Neither clozapine nor haloperidol showed significant effects”.
Take `O=C(CCCN1CCC(O)(c2ccc(Cl)cc2)CC1)c1ccc(F)cc1` [haloperidol]: the “change in KCNH2-1A expression, frontal cortex” value with KCNH2-1A mRNA expression (0.08 mg/kg/day, did not reach significance (p=0.082)) is given as “slight decrease”; with KCNH2-1A mRNA expression (0.6 mg/kg/day, did not reach significance (p=0.119)) it was “slight decrease”. Further, in the series with KCNH2-1A mRNA expression, the “effect on KCNH2-1A expression within the frontal cortex” value is “Neither clozapine nor haloperidol showed significant effects”. In addition, the “effect on NOS3 expression within the frontal cortex” value in the series with NOS3 mRNA expression was “Neither clozapine nor haloperidol showed significant effects”.
